Values of other authors, collected in patent US20250275948A1, “(N-[4-(2,3-DIHYDRO-1H-INDEN-5-YL)-1,3-THIAZOL-2-YL]-2-[4-METHYL-4-(NAPHTHALEN-2-YL)-2,5-DIOXOIMIDAZOLIDIN-1-YL]ACETAMIDE AS STABILIZER OF CLOCK:BMAL1 INTERACTION FOR THE TREATMENT OF CIRCADIAN RHYTHM DISEASES AND DISORDERS” (KOC UNIVERSITESI, priority 2022, published 2025).

What was measured:
Conditions in all cases: cited from earlier work
REV-ERB = system: REV-ERB
gluconeogenesis = system: gluconeogenesis
CRYs = system: CRYs

Structure (SMILES): CC(C)(C)OC(=O)CN(Cc1ccc(Cl)cc1)Cc1ccc([N+](=O)[O-])s1 [GSK4112]
- effect on REV-ERB repressor function (REV-ERB): enhance REV-ERB's repressor function toward Bmal1 transcription

Structure (SMILES): CS(=O)(=O)N(Cc1ccco1)CC(O)Cn1c2ccccc2c2ccccc21 (stereo not drawn) [KL001]
- effect on gluconeogenesis (gluconeogenesis): suppresses the gluconeogenesis
- effect on stability of CRYs (CRYs): increases stability of the CRYs
